According to patent US10047104B2, “Bicyclic heterocyclyl derivatives as IRAK4 inhibitors” (Aurigene Discovery Technologies Limited, priority 2014, dated 2018):
Counter-ions that a name gives are not always drawn.

Biological target: T1, recombinant IRAK-4 kinase (Homo sapiens, UniProt Q9NWZ3)
T1 construct: purchased Millipore, USA
T1 sequence (Q9NWZ3 1-460): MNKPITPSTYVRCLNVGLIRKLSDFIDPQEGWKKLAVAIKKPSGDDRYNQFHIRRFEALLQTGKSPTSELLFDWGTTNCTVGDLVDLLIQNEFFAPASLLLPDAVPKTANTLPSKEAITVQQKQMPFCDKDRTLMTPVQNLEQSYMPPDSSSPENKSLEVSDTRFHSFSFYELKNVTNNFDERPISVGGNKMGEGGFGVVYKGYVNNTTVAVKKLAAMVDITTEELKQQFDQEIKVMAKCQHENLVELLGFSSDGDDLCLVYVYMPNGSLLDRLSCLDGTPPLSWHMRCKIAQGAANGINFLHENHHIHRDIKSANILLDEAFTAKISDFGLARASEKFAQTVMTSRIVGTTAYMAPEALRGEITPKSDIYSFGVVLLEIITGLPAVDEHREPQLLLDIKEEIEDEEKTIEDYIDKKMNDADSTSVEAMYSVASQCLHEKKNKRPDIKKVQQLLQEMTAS
Assay: IRAK-4 Biochemical Assay (TR-FRET)
Settings: 5 ng IRAK-4 kinase, 100 nM Biotin Histone H3, 20 μM ATP, 30 minutes pre-incubation, read-out: IC50 values for IRAK4 activity
Procedure: Compounds were tested for their potential to inhibit IRAK-4 enzyme in a TR-FRET assay using recombinant IRAK-4 kinase from Millipore, USA. The assay buffer was 50 mM Tris-HCl pH 7.5, 20 mM MgCl2, 1 mM EGTA, 2 mM DTT, 3 mM MnCl2 and 0.01% Tween20. 5 ng of IRAK-4 kinase was used for the assay. After pre-incubation of enzyme with test compound for 30 minutes at room temperature, a substrate mix containing 100 nM Biotin Histone H3 (Millipore, USA) and 20 μM ATP (Sigma, USA) was added and the reaction was incubated for 30 minutes. Post incubation, the reaction was stopped by the addition of stop mix containing 40 mM EDTA, 1 nM of Europium-Anti-Phospho-Histone H3 (Ser10) antibody (Perkin Elmer, USA) and 20 nM Sure Light Allophycocyanin-Streptavidin (Perkin Elmer, USA).

SMILES | IC50 [nM]
Cc1cc(-c2ccc(C(=O)Nc3cc4oc(N5CCOCC5)nc4nc3N3CC[C@H](O)C3)s2)ccn1 [Example 108, (S)—N-(5-(3-hydroxypyrrolidin-1-yl)-2-morpholinooxazolo[4,5-b]pyridin-6-yl)-5-(2-methylpyridin-4-yl)thiophene-2-carboxamide] | > 100
O=C(Nc1cnc2nc(N3CCOCC3)sc2c1)c1cccc(-c2cn[nH]c2)n1 [Example 17, N-(2-morpholinothiazolo[4,5-b]pyridin-6-yl)-6-(1H-pyrazol-4-yl)picolinamide] | > 100
Cc1cc(-c2nc(C(=O)Nc3cc4oc(N5CCCCC5)nc4nc3N3CCC3)co2)ccn1 [Example 109, N-(5-(azetidin-1-yl)-2-(piperidin-1-yl)oxazolo[4,5-b]pyridin-6-yl)-2-(2-methylpyridin-4-yl)oxazole-4-carboxamide] | > 100
Cc1cc(-c2nc(C(=O)Nc3cc4oc(N5CCCC5)nc4nc3N3CCCCC3)co2)ccn1 [Example 48, 2-(2-methylpyridin-4-yl)-N-(5-(piperidin-1-yl)-2-(pyrrolidin-1-yl)oxazolo[4,5-b]pyridin-6-yl)oxazole-4-carboxamide hydrochloride] | > 100
Cc1cc(-c2nc(C(=O)Nc3cc4sc(N5CCOCC5)nc4nc3N3CCC(F)CC3)co2)ccn1 [Example 98, N-(5-(4-fluoropiperidin-1-yl)-2-morpholinothiazolo[4,5-b]pyridin-6-yl)-2-(2-methylpyridin-4-yl)oxazole-4-carboxamide] | < 50
Cc1cc(-c2ccc(C(=O)Nc3cc4sc(N5CCOCC5)nc4nc3N3CCC(O)CC3)o2)ccn1 [Example 101, N-(5-(4-hydroxypiperidin-1-yl)-2-morpholinothiazolo[4,5-b]pyridin-6-yl)-5-(2-methylpyridin-4-yl)furan-2-carboxamide] | < 50
Cc1cc(-c2nc(C(=O)Nc3cc4oc(N5CCOCC5)nc4nc3N3CCCC3)co2)ccn1 [Example 112, 2-(2-methylpyridin-4-yl)-N-(2-morpholino-5-(pyrrolidin-1-yl)oxazolo[4,5-b]pyridin-6-yl)oxazole-4-carboxamide] | > 100
Cc1cc(-c2nc(C(=O)Nc3cc4oc(N5CCCCC5)nc4nc3N3CCCCC3)co2)ccn1 [Example 5, N-(2,5-di(piperidin-1-yl)oxazolo[4,5-b]pyridin-6-yl)-2-(2-methylpyridin-4-yl)oxazole-4-carboxamide] | < 50
Cc1cc(-c2nc(C(=O)Nc3cc4sc(N5CCCCC5)nc4nc3N3CCCCC3)co2)ccn1 [Example 23, N-(2,5-di(piperidin-1-yl)thiazolo[4,5-b]pyridin-6-yl)-2-(2-methylpyridin-4-yl)oxazole-4-carboxamide] | < 50
Cn1cc(-c2cccc(C(=O)Nc3cc4sc(N5CCOCC5)nc4nc3N3CCCCC3)n2)cn1 [Example 51, 6-(1-methyl-1H-pyrazol-4-yl)-N-(2-morpholino-5-(piperidin-1-yl)thiazolo[4,5-b]pyridin-6-yl)picolinamide] | < 50
Cn1cc(-c2cccc(C(=O)Nc3cc4sc(N5CCCCC5)nc4nc3N3CCCCC3)n2)cn1 [Example 50, N-(2,5-di(piperidin-1-yl)thiazolo[4,5-b]pyridin-6-yl)-6-(1-methyl-1H-pyrazol-4-yl)picolinamide hydrochloride] | < 50
O=C(Nc1cc2sc(N3CCOCC3)nc2nc1C1CC1)c1cccc(N2CC[C@H](O)C2)n1 [Example 72, (S)—N-(5-cyclopropyl-2-morpholinothiazolo[4,5-b]pyridin-6-yl)-6-(3-hydroxypyrrolidin-1-yl)picolinamide] | < 50
Nc1cc(-c2nc(C(=O)Nc3cc4sc(N5CCOCC5)nc4nc3N3CCCCC3)co2)ccn1 [Example 92, 2-(2-aminopyridin-4-yl)-N-(2-morpholino-5-(piperidin-1-yl)thiazolo[4,5-b]pyridin-6-yl)oxazole-4-carboxamide hydrochloride] | < 50
O=C(Nc1cc2sc(N3CCOCC3)nc2nc1C1CC1)c1coc(N2CC[C@H](O)C2)n1 [Example 73, (S)—N-(5-cyclopropyl-2-morpholinothiazolo[4,5-b]pyridin-6-yl)-2-(3-hydroxypyrrolidin-1-yl)oxazole-4-carboxamide] | < 50
Cc1cc(-c2nc(C(=O)Nc3cc4sc(N5CCOCC5)nc4nc3N3CCC[C@H](F)C3)co2)ccn1 [Example 59, (S)—N-(5-(3-fluoropiperidin-1-yl)-2-morpholinothiazolo[4,5-b]pyridin-6-yl)-2-(2-methylpyridin-4-yl)oxazole-4-carboxamide] | < 50

Second part, the compound after the results:

IC50 [nM] | SMILES
< 50 | Cc1ncccc1-c1nc(C(=O)Nc2cc3oc(N4CCCCC4)nc3nc2N2CCCCC2)co1 [Example 27, N-(2,5-di(piperidin-1-yl)oxazolo[4,5-b]pyridin-6-yl)-2-(2-methylpyridin-3-yl)oxazole-4-carboxamide]
< 50 | Cc1cc(-c2nc(C(=O)Nc3cc4sc(N5C[C@@H](C)O[C@@H](C)C5)nc4nc3N3CCCCC3)co2)ccn1 [Example 53, N-(2-((2S,6R)-2,6-dimethylmorpholino)-5-(piperidin-1-yl)thiazolo[4,5-b]pyridin-6-yl)-2-(2-methylpyridin-4-yl)oxazole-4-carboxamide]
< 50 | Cc1cc(-c2nc(C(=O)Nc3cc4sc(N5CCOCC5)nc4nc3N3CCC[C@@H](O)C3)co2)ccn1 [Example 94, (R)—N-(5-(3-hydroxypiperidin-1-yl)-2-morpholinothiazolo[4,5-b]pyridin-6-yl)-2-(2-methylpyridin-4-yl)oxazole-4-carboxamide]
< 50 | COc1cc(-c2nc(C(=O)Nc3cc4sc(N5CCOCC5)nc4nc3N3CCCCC3)co2)ccn1 [Example 58, 2-(2-methoxypyridin-4-yl)-N-(2-morpholino-5-(piperidin-1-yl)thiazolo[4,5-b]pyridin-6-yl)oxazole-4-carboxamide]
< 50 | Cc1cc(-c2ccc(C(=O)Nc3cc4sc(N5CCOCC5)nc4nc3N3CCCC(F)C3)o2)ccn1 (centres unmarked) [Example 102, N-(5-(3-fluoropiperidin-1-yl)-2-morpholinothiazolo[4,5-b]pyridin-6-yl)-5-(2-methylpyridin-4-yl)furan-2-carboxamide]
< 50 | Cc1cc(-c2ccc(C(=O)Nc3cc4oc(N5CCOCC5)nc4nc3N3CCCCC3)o2)ccn1 [Example 113, 5-(2-methylpyridin-4-yl)-N-(2-morpholino-5-(piperidin-1-yl)oxazolo[4,5-b]pyridin-6-yl)furan-2-carboxamide]
< 50 | Cc1cc(-c2nc(C(=O)Nc3cc4sc(N5CCOCC5)nc4nc3-c3cnn(C)c3)co2)ccn1 [Example 99, N-(5-(1-methyl-1H-pyrazol-4-yl)-2-morpholinothiazolo[4,5-b]pyridin-6-yl)-2-(2-methylpyridin-4-yl)oxazole-4-carboxamide]
< 50 | Cc1cc(-c2nc(C(=O)Nc3cc4oc(N5CCCCC5)nc4nc3N3CCCC3)co2)ccn1 [Example 111, 2-(2-methylpyridin-4-yl)-N-(2-(piperidin-1-yl)-5-(pyrrolidin-1-yl)oxazolo[4,5-b]pyridin-6-yl)oxazole-4-carboxamide]
< 50 | Cc1cc(-c2nc(C(=O)Nc3cc4sc(N5CCOCC5)nc4nc3N3CC(O)C3)co2)ccn1 [Example 80, N-(5-(3-hydroxyazetidin-1-yl)-2-morpholinothiazolo[4,5-b]pyridin-6-yl)-2-(2-methylpyridin-4-yl)oxazole-4-carboxamide]
< 50 | Cc1cc(-c2nc(C(=O)Nc3cc4sc(N5CCCC(O)C5)nc4nc3N3CCC(F)CC3)co2)ccn1 (centres unmarked) [Example 133, N-(5-(4-fluoropiperidin-1-yl)-2-(3-hydroxypiperidin-1-yl)thiazolo[4,5-b]pyridin-6-yl)-2-(2-methylpyridin-4-yl)oxazole-4-carboxamide]
< 50 | Cc1cc(-c2nc(C(=O)Nc3cc4sc(N5CCOCC5)nc4nc3N3CCCC3)co2)ccn1 [Example 89, 2-(2-methylpyridin-4-yl)-N-(2-morpholino-5-(pyrrolidin-1-yl)thiazolo[4,5-b]pyridin-6-yl)oxazole-4-carboxamide]
< 50 | Cc1cc(-c2ccc(C(=O)Nc3cc4sc(N5CCOCC5)nc4nc3N3CC[C@H](O)C3)o2)ccn1 [Example 82, (S)—N-(5-(3-hydroxypyrrolidin-1-yl)-2-morpholinothiazolo[4,5-b]pyridin-6-yl)-5-(2-methylpyridin-4-yl)furan-2-carboxamide]
< 50 | Cc1cc(-c2nc(C(=O)Nc3cc4sc(N5CCCCC5)nc4nc3N3CCCC3)co2)ccn1 [Example 88, 2-(2-methylpyridin-4-yl)-N-(2-(piperidin-1-yl)-5-(pyrrolidin-1-yl)thiazolo[4,5-b]pyridin-6-yl)oxazole-4-carboxamide]
< 50 | Nc1ccc(-c2cccc(C(=O)Nc3ccc4nc(N5CCOCC5)sc4n3)n2)cn1 [Example 14, 6′-amino-N-(2-morpholinothiazolo[5,4-b]pyridin-5-yl)-[2,3′-bipyridine]-6-carboxamide]
